Assay results: patent publication US20040171594A1, “Use of bis-acid(5-androsten-17-one-3beta-hydroxyl)diester for manufacture pharmaceuticals” (priority 2001, published 2004)
Marks after values point to notes of the source that are not given here.

Assays:
[1] = test system: arrhythmia of rats induced by BaCl2; assay: Arrhythmia of rats induced by BaCl2; assay type: in vivo, SD rats; conditions: BaCl2 4 mg/kg, within 60 min, n=10
Protocol: 50 male SD rats, weighing (236.7±13.7)g, were anaesthetized with 10% chloral hadrate 0.3 g/kg intraperitoneally, recorded ECG with intubating of external jugular vein administering drug. As soon as injected with BaCl2 4 mg/kg, rats usually emerged VP and VT quickly and developed to be the steady and typical double-aspect arrhythmia. After immediately injected with drug or 0.5% CMC-Na into vein, recorded the time of recovering and maintaining sinus rhythm within 60 min as standard, and compared the function between five groups. […] Time of maintaining sinus rhythm was longer and acted more quickly than that of Amiodarone group.

[2] = test system: myocardium injury model of rats induced by ISO; assay: Myocardium injury (myocardial ischemia) model of rats induced by ISO; assay type: in vivo, SD rats; conditions: drug 0.76 mg/kg, n=8; for Σ ST: rats, ISO s.c.
Protocol: SD rats were measured ECG by chest leads before experiment, abandoned those of abnormal or arrhythmia at T wave, ST sect. […] They were divided into four groups according to Table 4, eight rats in each group. As dose of Table 4, tested compounds or 0.5% CMC-Na solution with same volume were administered through duodenum for 30 minutes, rats were anaesthetized with aether. After ECG was recorded, Isoproterenol (ISO) was administered by subcutaneous injection from the back, recorded ECG again after 30 minutes. After specimen was intragastricly granted for 24 hours and 48 hours, every group was administered simples again and recorded ECG again in terms of the methods stated above. After 72 hours, bleeding from the ophthalmic venous plexus and separated blood serum through centrifugation. Killed the rats, scissor the tip of the heart to prepare 10% myocardial tissue homogenate with 4° C. physiological saline as standby.
Measured each rat's value of ST before first administering ISO. And after first, second and third subcutaneous injection for 30 minutes, calculated mv mean value of ΣST as guide line of myocardium injury and performed t test.
The changes of MDA LDH and CK in serum were measured with agent kits.
The changes of MDA, LDH and CK in serum and myocardial tissue homogenate were measured with agent kits.

[3] = test system: cerebral ischemia-reperfusion injury of mice; assay: Memory step-through test after cerebral ischemia-reperfusion injury; assay type: in vivo, NIH mice; conditions: 4.5 mg/kg intragastric once a day for 10 days, n=10
Protocol: After weighed, NIH mice were anaesthetized with Penbotarbital 60 mg/kg, then performed operation. Fixed at supine position, the skin in the middle of the deck was dissected about 7 mm. Separated common carotid artery of two sides of neck, surrounded with the thread of No “0”. Common carotid artery of two sides was chipped with artery clip for 2 minutes to induce cerebral ischemia. In the end of ischemia treatment, artery clip was loosed and blood perfusion was restored, rest for five minutes, repeated twice as that. After blocking blood flow of carotid, sutured incision. Recorded trail bloodletting, bloodletting quantity was no more than 10% of total blood quantity. After operation, […] were administered with proper physiological saline through intraperitoneal injection in order to supple capacity of blood. After pseudo operation group was anaesthetized, carotid of two sides was separated but blood flow was not blocked, without being bloodletting too.
In experiment appearance of body temperature lowering and righting reflex disappearing was as positive guide-line of ischemia, discarding those without typical guide line of ischemia. In the procedure of ischemia or after operation, some of animals would be dead. […] According to the dose of Table 7, animals were administered with medicine by intragastric intubation once a day, and continue administered drug for 10 days. After 10 days, memory test was performed.

[4] = test system: thymus and spleen of mice; assay: Indexes of thymus and spleen of mice injected with cyclophosphamide; assay type: in vivo, NIH mice; conditions: cyclophosphamide 60 mg/kg i.p., drug 10 mg/kg intragastric for 30 days, n=10
Protocol: Chose 90 healthy NIH mice, weighing (18˜22)g, equal amount of male and female. Every mouse was injected with cyclophos phamide (60 mg/kg, intraperitoneally). […] Administered specimen through intragastric intubation in terms of the dose in Table 8. Continuously administered orally specimen for 30 days, all mice fasted on the 30th day, but were supplied with water. On the 31th day, mice of every group were killed. Weighed their body, thymus and spleen, calculated index of thymus and spleen, compared the difference among each group.

[5] = test system: osteoporosis model of rats induced by Retinoic acid; assay: Osteoporosis model of rats induced by Retinoic acid; assay type: in vivo, SD rats; conditions: Retinoic acid 70 mg/kg, specimen orally 30 days (dose not given), right thighbone, n=8
Text: After continuously administering specimen for 30 days, killed rats and took right thighbone of rat.
Took same part tissue of right thighbone, routinely decalcified, enveloped with olefin, and dyed with HE. Observed with ordinary optics microscope, import all imagines into computer with A/D conversion of pickup camera, via dealing with image analysis software obtained index of guide line as follows: relative bone volume, indicating percentage that bone trabecula accounted for medullary cavity, 1.25×10×4 times; average width of bone trabecula, 1.25×10×10 times; amount of cell per area in bone trabecula, gathering same area image (640×480) of bone trabecula with image analysis software, calculating amount of bone cell in corresponding area, 1.25×10×40 times; Average length of bone cell lacuna, 1.25×10×40; Average width of bone cell lacuna, 1.25×10×40. The above five indexes of static state guide-line were all observed for ten eyeshots, calculating their average value.

[6] = test system: acute renal failure of mice induced by endotoxin; assay: Acute renal failure model induced by endotoxin; assay type: in vivo, NIH mice; conditions: drug 10 mg/kg i.p., endotoxin 0.06 g/kg, after five hours, n=10; for GSH-Px: mice kidney homogenate; for BUN / Cr: mice serum
Protocol: After five hours, blood of the mice was collected by removing eyes, assayed Blood Urea Nitrogen (BUN) and Creatinine (Cr) concentration of serum. One kidney of each […] was taken out and made 100 mL/L homogenate, assayed activity of Glutathione Peroxidase (GSH-Px) enzyme.

[7] = myocardial tissue homogenate of rats with ISO myocardium injury
[8] = serum of rats with ISO myocardium injury, after 72 hours

Substance	Activity of CK [2, 7] [U/L]	Activity of LDH [2, 7] [U/L]	MDA [2, 7] [nmol/g]	Σ ST ([2]; 30 min) [mv]	Σ ST ([2]; 24 h) [mv]	Σ ST ([2]; 48 h) [mv]	Σ ST ([2]; 72 h) [mv]	Activity of CK [2, 8] [U/L]	Activity of LDH [2, 8] [U/L]	MDA [2, 8] [nmol/mL]	Latency of dark cabin, Memory [3] [s]	Latency of dark cabin, Study [3] [s]	Number of error [3] [n]	Index of spleen [4] [mg/10 g body weight]	Index of thymus [4] [mg/10 g body weight]	Amount of cell per area in bone trabecula [5]	Average width of bone trabecula [5] [μm]	Relative bone volume [5] [%]	GSH-Px [6] [nU · L^−1]	BUN [6]	other results
butanediol-disulphonic acid-(5-androsten-17-one-3β-ol)-diester [Compound I]	214.27 ± 40.62	159.82 ± 31.69	115.02 ± 10.34	0.49 ± 0.12	0.54 ± 0.12	0.50 ± 0.06	0.54 ± 0.08	242.14 ± 22.72	233.35 ± 18.46	24.64 ± 2.53	46.5 ± 13.8	25.7 ± 14.8	3.1 ± 1.7	69.60 ± 16.10	16.44 ± 3.25	31.84 ± 3.94	61.37 ± 4.71	29.84 ± 3.56	37.6 ± 15.1	344.4 ± 40.6*** 10 mg · L^−1	time of maintaining sinus rhythm ([1]; drug 0.5 mg/kg into vein): 45.478 ± 5.271 min; time of storing sinus rhythm ([1]; drug 0.5 mg/kg into vein): 6.752 ± 4.132 min; Cr [6]: 34.41 ± 9.65*** 10 mg · L^−1
pentanediol-disulphonic acid-(5-androsten-17-one-3β-ol)-diester [Compound J]	268.28 ± 42.59	197.45 ± 26.88	95.67 ± 15.67	0.54 ± 0.12	0.52 ± 0.07	0.56 ± 0.07	0.54 ± 0.08	239.40 ± 16.15	257.05 ± 31.30	26.47 ± 3.25	52.0 ± 17.2	30.8 ± 15.0	3.2 ± 1.6	61.29 ± 15.34	17.24 ± 3.34	29.84 ± 3.16	67.84 ± 4.68	37.55 ± 3.26	32.2 ± 13.1	337.6 ± 32.8*** 10 mg · L^−1	time of maintaining sinus rhythm ([1]; drug 1.5 mg/kg into vein): 51.762 ± 6.275 min; time of storing sinus rhythm ([1]; drug 1.5 mg/kg into vein): 3.584 ± 2.471 min; time of maintaining sinus rhythm ([1]; drug 2.5 mg/kg into vein): 59.248 ± 1.527 min; time of storing sinus rhythm ([1]; drug 2.5 mg/kg into vein): 0.845 ± 1.529 min; Cr [6]: 37.60 ± 8.44*** 10 mg · L^−1
